Assay results published in ChEMBL document CHEMBL1136698, “Peptoid mimics of agouti related protein” (Bioorg Med Chem Lett, 2003).
pIC50: −log10 of the molar value. One block for each compound: values may come before it.

Columns and labels:
[1] = biological target: T1, Melanocortin receptor 4 (Homo sapiens, UniProt P32245); assay: Binding affinity against human melanocortin 4 receptor (hMC4R) using [125I]- agouti related protein (AGRP) as radioligand
[2] = biological target: T1, Melanocortin receptor 4; assay: Binding affinity against human melanocortin 4 receptor (hMC4R) using [125I]- ([Nle4]alpha-MSH) as radioligand
[3] = biological target: T1, Melanocortin receptor 4; assay: Binding affinity against human melanocortin 4 receptor (hMC4R) using [125I]- ([Nle4]alpha-MSH) as radioligand; NA: Not active
[4] = biological target: T1, Melanocortin receptor 4; assay: Binding affinity against human melanocortin 4 receptor (hMC4R) using [125I]- agouti related protein (AGRP) as radioligand; NA: Not active
[5] = biological target: T1, Melanocortin receptor 4; assay: Inhibitory activity against hMC4R (human melanocortin receptor) using I-AGRP as radioligand
[6] = biological target: T1, Melanocortin receptor 4; assay: Inhibitory activity against hMC4R (human melanocortin receptor) using [125I]-[Nle4] alpha-MSH as radioligand
[7] = biological target: T2, Melanocortin receptor 3 (Homo sapiens, UniProt P41968); assay: Inhibitory activity against hMC3R (human melanocortin receptor) using [125I]-[Nle4] alpha-MSH as radioligand
T2 sequence (P41968 whole entry): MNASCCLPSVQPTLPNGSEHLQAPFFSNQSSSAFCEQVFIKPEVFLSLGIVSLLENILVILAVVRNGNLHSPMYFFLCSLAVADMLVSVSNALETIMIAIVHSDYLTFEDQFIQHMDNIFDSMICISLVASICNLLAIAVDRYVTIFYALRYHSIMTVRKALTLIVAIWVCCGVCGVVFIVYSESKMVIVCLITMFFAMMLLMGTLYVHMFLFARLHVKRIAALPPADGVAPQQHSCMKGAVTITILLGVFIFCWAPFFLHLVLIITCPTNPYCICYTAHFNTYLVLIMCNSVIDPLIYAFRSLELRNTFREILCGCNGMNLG

[8] = biological target: T3, Melanocyte-stimulating hormone receptor (Homo sapiens, UniProt Q01726); assay: Inhibitory activity against hMC1R (human melanocortin receptor) using [125I]- ASIP Y radioligand
T3 sequence (Q01726 whole entry): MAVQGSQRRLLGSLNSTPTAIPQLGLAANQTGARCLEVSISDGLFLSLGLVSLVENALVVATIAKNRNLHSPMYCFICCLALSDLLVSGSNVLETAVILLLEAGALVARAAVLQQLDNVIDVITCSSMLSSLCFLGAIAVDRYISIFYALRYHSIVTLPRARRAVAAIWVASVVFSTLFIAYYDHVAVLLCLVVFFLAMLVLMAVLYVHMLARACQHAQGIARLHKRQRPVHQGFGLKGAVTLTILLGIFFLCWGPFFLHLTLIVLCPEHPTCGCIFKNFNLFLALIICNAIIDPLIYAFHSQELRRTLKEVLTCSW

[9] = biological target: T2, Melanocortin receptor 3; assay: Inhibitory activity against hMC3R (human melanocortin receptor) using I-AGRP as radioligand
[10] = biological target: T1, Melanocortin receptor 4; assay: Binding affinity against human melanocortin 4 receptor (hMC4R) using [125I]- NDP-MSH as radioligand
[11] = biological target: T3, Melanocyte-stimulating hormone receptor; assay: Inhibitory activity against hMC1R (human melanocortin receptor) using [125I]-[Nle4] alpha-MSH as radioligand

T1 sequence (P32245 whole entry): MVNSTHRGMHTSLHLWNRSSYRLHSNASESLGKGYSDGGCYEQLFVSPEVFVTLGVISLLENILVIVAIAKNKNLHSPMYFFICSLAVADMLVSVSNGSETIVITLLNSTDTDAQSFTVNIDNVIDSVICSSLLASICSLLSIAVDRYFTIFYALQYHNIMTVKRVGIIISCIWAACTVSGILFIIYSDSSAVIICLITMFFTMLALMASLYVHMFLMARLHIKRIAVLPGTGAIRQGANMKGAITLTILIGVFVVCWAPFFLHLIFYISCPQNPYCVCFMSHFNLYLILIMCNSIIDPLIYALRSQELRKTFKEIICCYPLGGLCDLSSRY

pIC50 [1]: < 4.00
pIC50 [2]: < 4.00
Compound: NC(=O)CN(Cc1ccccc1)C(=O)CN(Cc1ccccc1)C(=O)CNCCCN=C(N)N

IC50 [3]: Not Active
IC50 [4]: Not Active
Compound: C[C@@H](c1ccccc1)N(CC(N)=O)C(=O)CN(Cc1ccccc1)C(=O)CNCCCN=C(N)N

pIC50 [2]: < 4.00
Compound: CC(C)(C(N)=O)N(Cc1ccccc1)C(=O)CN(CCc1ccccc1)C(=O)CNCCCN=C(N)N

pIC50 [1]: < 4.00
pIC50 [2]: < 4.00
Compound: C[C@H](c1ccccc1)N(CC(N)=O)C(=O)CN(Cc1ccccc1)C(=O)CNCCCN=C(N)N

pIC50 [5]: 5.72
pIC50 [1]: 5.72
pIC50 [6]: 5.51
pIC50 [2]: 5.51
pIC50 [7]: 4.32
pIC50 [8]: 4.60
pIC50 [9]: < 4.30
pIC50 [10]: 5.68
pIC50 [11]: 5.04
Compound: C[C@H](c1ccccc1)N(CC(N)=O)C(=O)CN(C(=O)CNCCCNC(=N)N)C(c1ccccc1)c1ccccc1
